Results reported in article PMC8480759, “Inhibitors of histone deacetylase 6 based on a novel 3-hydroxy-isoxazole zinc binding group” (Journal of Enzyme Inhibition and Medicinal Chemistry, 2021).

Columns and labels:
HDAC6 = molecular target: T1, HDAC6 (Homo sapiens, UniProt Q9UBN7); assay: HDAC6 assay with acetylated p53 peptide (residues 379–382, RHKKAc-AMC) as substrate; assay type: biochemical
T1 sequence (Q9UBN7 1-1215): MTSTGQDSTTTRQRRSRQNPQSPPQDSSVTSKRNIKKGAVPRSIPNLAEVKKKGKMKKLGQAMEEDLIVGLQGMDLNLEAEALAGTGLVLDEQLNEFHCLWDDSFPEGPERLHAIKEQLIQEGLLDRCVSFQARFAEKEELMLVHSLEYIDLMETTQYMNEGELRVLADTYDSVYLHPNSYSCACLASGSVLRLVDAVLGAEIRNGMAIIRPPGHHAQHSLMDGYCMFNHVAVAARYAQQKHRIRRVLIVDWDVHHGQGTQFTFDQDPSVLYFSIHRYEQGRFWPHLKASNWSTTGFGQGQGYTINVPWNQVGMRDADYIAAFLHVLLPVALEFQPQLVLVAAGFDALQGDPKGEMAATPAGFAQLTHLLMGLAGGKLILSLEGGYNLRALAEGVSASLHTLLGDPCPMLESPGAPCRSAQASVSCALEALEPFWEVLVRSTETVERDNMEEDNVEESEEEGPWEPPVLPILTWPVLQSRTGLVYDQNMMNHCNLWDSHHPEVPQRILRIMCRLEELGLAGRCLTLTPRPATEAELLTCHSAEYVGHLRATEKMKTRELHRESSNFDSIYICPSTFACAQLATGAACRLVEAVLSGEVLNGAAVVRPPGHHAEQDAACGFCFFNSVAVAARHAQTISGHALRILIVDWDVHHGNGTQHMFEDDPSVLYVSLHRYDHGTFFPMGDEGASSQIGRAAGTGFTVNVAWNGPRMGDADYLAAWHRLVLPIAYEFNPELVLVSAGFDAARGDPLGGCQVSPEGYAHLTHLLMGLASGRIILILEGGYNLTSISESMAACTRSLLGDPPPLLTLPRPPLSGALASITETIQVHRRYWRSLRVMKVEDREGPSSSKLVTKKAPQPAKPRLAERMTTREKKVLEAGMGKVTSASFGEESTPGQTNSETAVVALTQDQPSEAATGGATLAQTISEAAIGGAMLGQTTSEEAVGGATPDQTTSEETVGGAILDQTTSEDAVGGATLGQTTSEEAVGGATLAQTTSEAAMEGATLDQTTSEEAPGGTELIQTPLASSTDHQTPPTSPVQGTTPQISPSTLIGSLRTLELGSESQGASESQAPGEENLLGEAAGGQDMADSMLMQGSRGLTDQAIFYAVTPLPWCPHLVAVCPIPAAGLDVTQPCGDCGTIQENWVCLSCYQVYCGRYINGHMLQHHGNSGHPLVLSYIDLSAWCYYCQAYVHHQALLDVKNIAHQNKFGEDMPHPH

[1] = system: acetylation levels of α-tubulin (HDAC6 target) in DU145 cells; assay: Western blot of α-tubulin acetylation in DU145 cells; assay type: cell-based, human; settings: 24 h, 10 µM
Method: The results corroborate the inhibitory activity of 17, 23, 25 and 27 at concentrations lower than 10 µM. […] HDACs contribution to CRPC is known[20] and the possibility to arrest CRPC proliferation by acting on HDAC targets is expanding in the scientific literature[21]^,[22]. After administration of the selected compounds for 24 h at 10 µM concentration, the effect on the acetylation levels of histone H3 and α-tubulin (respectively, HDAC1 and HDAC6 targets) was investigated. […] Lastly, in the same cell line, the anti-proliferative effect was measured in dose and time dependent manner (Figure S4).
Figure S3. Western blotting analysis of the tested and reference compounds SAHA and Tubastatin A on acetylation levels of histone H3 and α-tubulin in DU145 cells. GAPDH and H4 were used as a loading control. Densitometric values were analyzed using ImageJ Software and are reported on the top of bands as the ratio between loading control and acetylated target. […]
The resulting mixtures were incubated at 37 °C for 45min , after which 25 µL of 2X HDAC developer were added. Following incubation at RT for 15 min, fluorescence intensity was measured using a microplate reader (GloMax Discover System, Promega) at 365nm excitation and […] emission wavelengths.
IC50 values were calculated using the GraphPad Prism 6 program based on a log(inhibitor) vs response (variable slope) sigmoidal equation. […]

SMILES	concentration showing inhibitory activity on HDAC6 (HDAC6)	effect on acetylation of α-tubulin [1]
Oc1cc(-c2ccc(NCc3ccccc3)cc2)on1 [Compound 23]	below 10 µM	increased
Oc1cc(-c2ccc3c(c2)OCO3)on1 [Compound 25]	below 10 µM	increased
